{"source": "ChEMBL document CHEMBL1681747", "about": "“Novel second generation analogs of eribulin. Part II: Orally available and active against resistant tumors in vivo” (Bioorg Med Chem Lett, 2011)", "key": {"[1]": {"test": "AUC (0 to infinity) in BALB/c mouse at 5 mg/kg", "format": "ADME, organism-based", "parameters": "time infinity, dose 5 mg/kg", "conditions": "plasma"}, "[2]": {"test": "Clearance in BALB/c mouse at 5 mg/kg, iv", "format": "ADME, organism-based", "parameters": "dose 5 mg/kg, route intravenous", "conditions": "in vivo"}, "DLD-1 [3]": {"test_system": "DLD-1", "test": "Cytotoxicity against human DLD1 cells", "format": "functional, cell-based"}, "[4]": {"test": "Oral bioavailability in BALB/c mouse at 5 mg/kg", "format": "ADME, organism-based", "conditions": "in vivo"}, "[5]": {"test": "Volume of distribution at steady state in BALB/c mouse at 5 mg/kg, iv", "format": "ADME, organism-based", "parameters": "dose 5 mg/kg, route intravenous", "conditions": "in vivo, read-out: Vdss"}, "[6]": {"test": "Half life in BALB/c mouse at 5 mg/kg", "format": "ADME, organism-based", "parameters": "dose 5 mg/kg", "conditions": "in vivo"}, "HCT-15": {"test_system": "HCT-15", "test": "Cytotoxicity against human HCT15 cells", "format": "functional, cell-based"}, "[7]": {"test": "Tmax in BALB/c mouse at 5 mg/kg", "format": "ADME, organism-based", "parameters": "dose 5 mg/kg", "conditions": "in vivo"}, "LOX": {"test_system": "LOX", "test": "Antitumor activity against human LOX cells xenografted in athymic mouse assessed as long term tumor regression at 0.95 to 3 mg/kg, po administered 6 days after tumor implantation qd for 2 weeks", "format": "functional, organism-based"}, "DLD-1 [8]": {"test_system": "DLD-1", "test": "Antitumor activity against human DLD1 cells xenografted in athymic mouse assessed as tumor stasis at 1.3 to 3 mg/kg, iv administered 2 weeks after tumor implantation qd for weekly 3 days", "format": "functional, organism-based"}, "DLD-1 [9]": {"test_system": "DLD-1", "test": "Antitumor activity against human DLD1 cells xenografted in iv dosed athymic mouse assessed as tumor growth inhibition administered qd for weekly 3 days", "format": "functional, organism-based"}, "[10]": {"test": "Cytotoxicity against human MES-SA cells", "format": "functional, cell-based"}, "MES-SA": {"test_system": "MES-SA", "test": "Fold resistant ratio of IC50 for MES-SA/Dx5-Rx1 cells to IC50 for human MES-SA cells"}, "[11]": {"test": "Cytotoxicity against human MES-SA/Dx5-Rx1 cells", "format": "functional, cell-based"}, "[12]": {"test": "Oral bioavailability in BALB/c mouse at 10 mg/kg", "format": "ADME, organism-based", "conditions": "in vivo"}, "[13]": {"test": "Volume of distribution at steady state in BALB/c mouse at 10 mg/kg, iv", "format": "ADME, organism-based", "parameters": "dose 10 mg/kg, route intravenous", "conditions": "in vivo, read-out: Vdss"}, "[14]": {"test": "Clearance in BALB/c mouse at 10 mg/kg, iv", "format": "ADME, organism-based", "parameters": "dose 10 mg/kg, route intravenous", "conditions": "in vivo"}, "[15]": {"test": "AUC (0 to infinity) in BALB/c mouse at 10 mg/kg", "format": "ADME, organism-based", "parameters": "time infinity, dose 10 mg/kg", "conditions": "plasma"}, "[16]": {"test": "Half life in BALB/c mouse at 10 mg/kg", "format": "ADME, organism-based", "parameters": "dose 10 mg/kg", "conditions": "in vivo"}, "[17]": {"test": "Tmax in BALB/c mouse at 10 mg/kg", "format": "ADME, organism-based", "parameters": "dose 10 mg/kg", "conditions": "in vivo"}}, "note": "The source made the active and inactive calls. The rule behind the calls is not given here."}
{"smiles": "C=C1C[C@@H]2CC[C@@]34C[C@H]5O[C@H]6[C@@H](O3)[C@H]3O[C@H](CC[C@@H]3O[C@H]6[C@H]5O4)CC(=O)C[C@@H]3[C@@H](OC)[C@@H](CCNCC(F)F)O[C@H]3C[C@H]3O[C@@H](CC[C@@H]1O2)C[C@@H](C)C3=C", "values": [{"measurement": "AUC(0-inf)", "setting": "[1]", "result": 0.063, "unit": "µg·h/mL"}, {"measurement": "clearance", "setting": "[2]", "result": 2.91, "unit": "L/h/kg"}, {"measurement": "IC50", "setting": "DLD-1 [3]", "result": 3.16, "unit": "nM"}, {"measurement": "bioavailability", "setting": "[4]", "result": 11.3, "unit": "%"}, {"measurement": "Vd", "setting": "[5]", "result": 4.78, "unit": "L/kg"}, {"measurement": "half-life", "setting": "[6]", "result": 246, "unit": "min"}, {"measurement": "IC50", "setting": "HCT-15", "result": 3.11, "unit": "nM"}, {"measurement": "Tmax", "setting": "[7]", "result": 5, "unit": "min"}]}
{"smiles": "C=C1C[C@@H]2CC[C@@]34C[C@H]5O[C@H]6[C@@H](O3)[C@H]3O[C@H](CC[C@@H]3O[C@H]6[C@H]5O4)CC(=O)C[C@@H]3[C@@H](OC)[C@@H](C[C@@H](CN4CCOCC4)OC)O[C@H]3C[C@H]3O[C@@H](CC[C@@H]1O2)C[C@@H](C)C3=C", "values": [{"measurement": "AUC(0-inf)", "setting": "[1]", "result": 1.09, "unit": "µg·h/mL"}, {"measurement": "clearance", "setting": "[2]", "result": 0.68, "unit": "L/h/kg"}, {"measurement": "IC50", "setting": "DLD-1 [3]", "result": 0.23, "unit": "nM"}, {"measurement": "Activity", "setting": "LOX", "result": "Active"}, {"measurement": "bioavailability", "setting": "[4]", "result": 14.9, "unit": "%"}, {"measurement": "Vd", "setting": "[5]", "result": 0.92, "unit": "L/kg"}, {"measurement": "Activity", "setting": "DLD-1 [8]", "result": "Active"}, {"measurement": "half-life", "setting": "[6]", "result": 54, "unit": "min"}, {"measurement": "Activity", "setting": "DLD-1 [9]", "result": "Dose-dependent effect"}, {"measurement": "IC50", "setting": "HCT-15", "result": 0.2, "unit": "nM"}, {"measurement": "Tmax", "setting": "[7]", "result": 5, "unit": "min"}]}
{"smiles": "C=C1C[C@@H]2CC[C@@]34C[C@H]5O[C@H]6[C@@H](O3)[C@H]3O[C@H](CC[C@@H]3O[C@H]6[C@H]5O4)CC(=O)C[C@@H]3[C@@H](OC)[C@@H](CC(=O)CN4CCOCC4)O[C@H]3C[C@H]3O[C@@H](CC[C@@H]1O2)C[C@@H](C)C3=C", "values": [{"measurement": "AUC(0-inf)", "setting": "[1]", "result": 0.236, "unit": "µg·h/mL"}, {"measurement": "clearance", "setting": "[2]", "result": 2.82, "unit": "L/h/kg"}, {"measurement": "IC50", "setting": "DLD-1 [3]", "result": 0.7, "unit": "nM"}, {"measurement": "bioavailability", "setting": "[4]", "result": 13.3, "unit": "%"}, {"measurement": "Vd", "setting": "[5]", "result": 3.64, "unit": "L/kg"}, {"measurement": "half-life", "setting": "[6]", "result": 102, "unit": "min"}, {"measurement": "IC50", "setting": "HCT-15", "result": 0.46, "unit": "nM"}, {"measurement": "Tmax", "setting": "[7]", "result": 5, "unit": "min"}]}
{"smiles": "C=C1C[C@@H]2CC[C@@]34C[C@H]5O[C@H]6[C@@H](O3)[C@H]3O[C@H](CC[C@@H]3O[C@H]6[C@H]5O4)CC(=O)C[C@@H]3[C@@H](OC)[C@@H](C[C@@H](CN(C)c4ncccn4)OC)O[C@H]3C[C@H]3O[C@@H](CC[C@@H]1O2)C[C@@H](C)C3=C", "values": [{"measurement": "IC50", "setting": "DLD-1 [3]", "result": 6.9, "unit": "nM"}, {"measurement": "IC50", "setting": "[10]", "result": 2.17, "unit": "nM"}, {"measurement": "Ratio IC50", "setting": "MES-SA", "result": 4.66}, {"measurement": "IC50", "setting": "HCT-15", "result": 5.4, "unit": "nM"}, {"measurement": "IC50", "setting": "[11]", "result": 10.1, "unit": "nM"}]}
{"smiles": "C=C1C[C@@H]2CC[C@@]34C[C@H]5O[C@H]6[C@@H](O3)[C@H]3O[C@H](CC[C@@H]3O[C@H]6[C@H]5O4)CC(=O)C[C@@H]3[C@@H](OC)[C@@H](C[C@@H](CN4CCN(C(F)(F)F)CC4)OC)O[C@H]3C[C@H]3O[C@@H](CC[C@@H]1O2)C[C@@H](C)C3=C", "values": [{"measurement": "IC50", "setting": "DLD-1 [3]", "result": 0.17, "unit": "nM"}, {"measurement": "IC50", "setting": "[10]", "result": 0.14, "unit": "nM"}, {"measurement": "Ratio IC50", "setting": "MES-SA", "result": 6.03}, {"measurement": "IC50", "setting": "HCT-15", "result": 0.15, "unit": "nM"}, {"measurement": "IC50", "setting": "[11]", "result": 0.83, "unit": "nM"}]}
{"smiles": "C=C1C[C@@H]2CC[C@@]34C[C@H]5O[C@H]6[C@@H](O3)[C@H]3O[C@H](CC[C@@H]3O[C@H]6[C@H]5O4)CC(=O)C[C@@H]3[C@@H](OC)[C@@H](C[C@@H](CN4C[C@@H]4C)OC)O[C@H]3C[C@H]3O[C@@H](CC[C@@H]1O2)C[C@@H](C)C3=C", "note": "(stereo partly drawn)", "values": [{"measurement": "IC50", "setting": "DLD-1 [3]", "result": 0.47, "unit": "nM"}, {"measurement": "IC50", "setting": "[10]", "result": 0.13, "unit": "nM"}, {"measurement": "Ratio IC50", "setting": "MES-SA", "result": 18.26}, {"measurement": "IC50", "setting": "HCT-15", "result": 0.67, "unit": "nM"}, {"measurement": "IC50", "setting": "[11]", "result": 2.23, "unit": "nM"}]}
{"smiles": "C=C1C[C@@H]2CC[C@@]34C[C@H]5O[C@H]6[C@@H](O3)[C@H]3O[C@H](CC[C@@H]3O[C@H]6[C@H]5O4)CC(=O)C[C@@H]3[C@@H](OC)[C@@H](C[C@@H](CN4C[C@H]4C)OC)O[C@H]3C[C@H]3O[C@@H](CC[C@@H]1O2)C[C@@H](C)C3=C", "note": "(stereo partly drawn)", "values": [{"measurement": "IC50", "setting": "DLD-1 [3]", "result": 0.53, "unit": "nM"}, {"measurement": "IC50", "setting": "[10]", "result": 0.16, "unit": "nM"}, {"measurement": "Ratio IC50", "setting": "MES-SA", "result": 18.04}, {"measurement": "IC50", "setting": "HCT-15", "result": 0.78, "unit": "nM"}, {"measurement": "IC50", "setting": "[11]", "result": 2.79, "unit": "nM"}]}
{"smiles": "C=CCN(CC=C)C[C@H](C[C@H]1O[C@H]2C[C@H]3O[C@@H](CC[C@@H]4O[C@@H](CC[C@@]56C[C@H]7O[C@H]8[C@@H](O5)[C@H]5O[C@H](CC[C@@H]5O[C@H]8[C@H]7O6)CC(=O)C[C@@H]2[C@H]1OC)CC4=C)C[C@@H](C)C3=C)OC", "values": [{"measurement": "IC50", "setting": "DLD-1 [3]", "result": 0.44, "unit": "nM"}, {"measurement": "IC50", "setting": "[10]", "result": 0.17, "unit": "nM"}, {"measurement": "Ratio IC50", "setting": "MES-SA", "result": 6.26}, {"measurement": "IC50", "setting": "HCT-15", "result": 0.27, "unit": "nM"}, {"measurement": "IC50", "setting": "[11]", "result": 1.01, "unit": "nM"}]}
{"smiles": "C=C1C[C@@H]2CC[C@@]34C[C@H]5O[C@H]6[C@@H](O3)[C@H]3O[C@H](CC[C@@H]3O[C@H]6[C@H]5O4)CC(=O)C[C@@H]3[C@@H](OC)[C@@H](C[C@H](O)CN)O[C@H]3C[C@H]3O[C@@H](CC[C@@H]1O2)C[C@@H](C)C3=C", "note": "[ERIBULIN]", "values": [{"measurement": "bioavailability", "setting": "[12]", "result": 3.2, "unit": "%"}, {"measurement": "Vd", "setting": "[13]", "result": 4.95, "unit": "L/kg"}, {"measurement": "clearance", "setting": "[14]", "result": 1.19, "unit": "L/h/kg"}, {"measurement": "AUC(0-inf)", "setting": "[15]", "result": 0.161, "unit": "µg·h/mL"}, {"measurement": "half-life", "setting": "[16]", "result": 924, "unit": "min"}, {"measurement": "Tmax", "setting": "[17]", "result": 5, "unit": "min"}]}
